Patent publication US20260365670A1, “EGFR INHIBITORS AND USES THEREOF” (DIZAL (JIANGSU) PHARMACEUTICAL CO., LTD., priority 2022, published 2026)
Like-named read-outs stand apart in the source and are kept apart here.

Legend:
[1] = test system: PC-9; test: Cell proliferation assay, PC-9 cells (CellTiter-Glo, 72 hours); assay type: cell-based; conditions: PC9 cells
Description: (§1) Biological Example 2: Cell Proliferation Assays
(§2) Ba/F3 cells expressing EGFR mutations were seeded in 384-well plates at 5000 cells/well in RPMI1640 medium containing […]. PC-9 at 500 cells/well was seeded into 384-well plates in RPMI1640 medium with 10% FBS. After overnight incubation, the assay plates were dosed with compounds at a series of concentrations. Alongside dosing the assay plates, the day 0 plate was processed using CellTiter-Glo® Luminescent Cell Viability Assay (Promega) to measure the number of viable cells (G0). The assay plates were further incubated for 72 hours and the number of viable cells (G3) was measured. The percentage of proliferation was calculated as: […]=100×(G3 value of sample well−G0 value)/(G3 value of DMSO control−G0 value). The concentration of compound producing 50% proliferation inhibition (GI50) was further calculated in best-fit curves using XLFit software. N/A=not available.

[2] = target: T1, EGFR wild type (Homo sapiens, UniProt P00533); test: Inhibition of EGFR wild type biochemical enzymatic activity (HTRF); conditions: 1 mM ATP
T1 construct: purchased Carna Bio
Description: (§3) Biological Example 1: Inhibition of EGFR WT and Mutant Biochemical Enzymatic Activity
(§4) The inhibition potency of compounds against these enzymes was assessed using Homogenous Time Resolved Fluorescence approach (HTRF, CisBio. Cat No. 62TKOPEJ).
(§5) Inhibitory effects of the compounds were determined by measuring the enzymatic activity of EGFR enzyme phosphorylates 1 μM TK Substrate-biotin in the presence of 1 mM adenosine-5′-triphosphate (ATP) and varying concentrations of the test compound. The enzyme reaction buffer contains 5 mM MgCl2, 1 mM MnC12, 0.01% CHAPS, 1 mM dithiothreitol (DTT), 0.5% dimethylsulfoxide (DMSO), and 1× supplemented enzymatic buffer. The WT and mutant EGFR enzymes (SignalChem) were added to plates containing inhibitors, followed by activation of the kinase reaction by addition of ATP and peptide substrates. After incubation for 1 h at room temperature, the reaction was stopped by the addition of the detection reagent mix containing EDTA. The fluorescence was measured at 615 nm and 665 nm, respectively with excitation wavelength at 320 nm. The calculated signal ratio of 665 nm/615 nm is proportional to the kinase activity. The concentration of compound producing 50% inhibition of the respective kinase (IC50) was calculated using four-parameter logistic fit with XL-FIT.

[3] = target: T2, EGFR (d746-750 C797S) (Homo sapiens, UniProt P00533, C797S/DEL746-750); test: Inhibition of EGFR (d746-750 C797S) biochemical enzymatic activity (HTRF); conditions: 1 mM ATP
T2 construct: purchased signalchem
Description: as §3, §4, §5

[4] = target: T3, EGFR Exon19Del (Homo sapiens, UniProt P00533, DEL746-750); test: Inhibition of EGFR Exon19Del biochemical enzymatic activity (HTRF); conditions: read-out: IC50 @Del19
T3 construct: purchased Carna Bio
Description: as §3, §4, §5

[5] = test system: Ba/F3 cells expressing EGFR mutations; test: Cell proliferation assay, Ba/F3 cells expressing EGFR mutations (CellTiter-Glo, 72 hours); assay type: cell-based
Description: as §1, §2

[6] = target: T4, EGFR[T790M/C797S/d746-750] (Homo sapiens, UniProt P00533, C797S/DEL746-750/T790M); test: Inhibition of EGFR[T790M/C797S/d746-750] biochemical enzymatic activity (HTRF)
T4 construct: purchased Carna Bio
Description: as §3, §4, §5

[7] = target: T5, EGFR (C797S L858R) (Homo sapiens, UniProt P00533, C797S/L858R); test: Inhibition of EGFR (C797S L858R) biochemical enzymatic activity (HTRF); conditions: 1 mM ATP
T5 construct: purchased signalchem
Description: as §3, §4, §5

[8] = target: T6, EGFR Exon19Del/T790M (Homo sapiens, UniProt P00533, DEL746-750/T790M); test: Inhibition of EGFR Exon19Del/T790M biochemical enzymatic activity (HTRF); conditions: 1 mM ATP
T6 construct: purchased Carna Bio
Description: as §3, §4, §5

[9] = target: T7, EGFR L858R/T790M (Homo sapiens, UniProt P00533, L858R/T790M); test: Inhibition of EGFR L858R/T790M biochemical enzymatic activity (HTRF); conditions: 1 mM ATP
T7 construct: purchased Carna Bio
Description: as §3, §4, §5

[10] = target: T8, EGFR[T790M/C797S/L858R] (Homo sapiens, UniProt P00533, C797S/L858R/T790M); test: Inhibition of EGFR[T790M/C797S/L858R] biochemical enzymatic activity (HTRF); conditions: 1 mM ATP
T8 construct: purchased Carna Bio
Description: as §3, §4, §5

[11] = target: T9, EGFR L858R (Homo sapiens, UniProt P00533, L858R); test: Inhibition of EGFR L858R biochemical enzymatic activity (HTRF); conditions: 1 mM ATP
T9 construct: purchased Carna Bio
Description: as §3, §4, §5

[12] = EGFR wild type, 1 h at room temperature, read-out: IC50 @WT
[13] = EGFR (d746-750 C797S), 1 h at room temperature, read-out: IC50 @Del19-C797S
[14] = EGFR Exon19Del, 1 mM ATP, 1 h at room temperature
[15] = EGFR[T790M/C797S/d746-750], 1 mM ATP, 1 h at room temperature, read-out: IC50 @T790M - C797S - Del19
[16] = EGFR (C797S L858R), 1 h at room temperature, read-out: IC50 @L858-C797S
[17] = EGFR Exon19Del/T790M, 1 h at room temperature, read-out: IC50 @Del19-T790M
[18] = EGFR L858R/T790M, 1 h at room temperature, read-out: IC50 @L858R-T790M
[19] = EGFR[T790M/C797S/L858R], 1 h at room temperature, read-out: IC50 @T790M- C797S - L858R
[20] = 1 h at room temperature, read-out: IC50 @L858R

T9 sequence (P00533 25-1210 L858R): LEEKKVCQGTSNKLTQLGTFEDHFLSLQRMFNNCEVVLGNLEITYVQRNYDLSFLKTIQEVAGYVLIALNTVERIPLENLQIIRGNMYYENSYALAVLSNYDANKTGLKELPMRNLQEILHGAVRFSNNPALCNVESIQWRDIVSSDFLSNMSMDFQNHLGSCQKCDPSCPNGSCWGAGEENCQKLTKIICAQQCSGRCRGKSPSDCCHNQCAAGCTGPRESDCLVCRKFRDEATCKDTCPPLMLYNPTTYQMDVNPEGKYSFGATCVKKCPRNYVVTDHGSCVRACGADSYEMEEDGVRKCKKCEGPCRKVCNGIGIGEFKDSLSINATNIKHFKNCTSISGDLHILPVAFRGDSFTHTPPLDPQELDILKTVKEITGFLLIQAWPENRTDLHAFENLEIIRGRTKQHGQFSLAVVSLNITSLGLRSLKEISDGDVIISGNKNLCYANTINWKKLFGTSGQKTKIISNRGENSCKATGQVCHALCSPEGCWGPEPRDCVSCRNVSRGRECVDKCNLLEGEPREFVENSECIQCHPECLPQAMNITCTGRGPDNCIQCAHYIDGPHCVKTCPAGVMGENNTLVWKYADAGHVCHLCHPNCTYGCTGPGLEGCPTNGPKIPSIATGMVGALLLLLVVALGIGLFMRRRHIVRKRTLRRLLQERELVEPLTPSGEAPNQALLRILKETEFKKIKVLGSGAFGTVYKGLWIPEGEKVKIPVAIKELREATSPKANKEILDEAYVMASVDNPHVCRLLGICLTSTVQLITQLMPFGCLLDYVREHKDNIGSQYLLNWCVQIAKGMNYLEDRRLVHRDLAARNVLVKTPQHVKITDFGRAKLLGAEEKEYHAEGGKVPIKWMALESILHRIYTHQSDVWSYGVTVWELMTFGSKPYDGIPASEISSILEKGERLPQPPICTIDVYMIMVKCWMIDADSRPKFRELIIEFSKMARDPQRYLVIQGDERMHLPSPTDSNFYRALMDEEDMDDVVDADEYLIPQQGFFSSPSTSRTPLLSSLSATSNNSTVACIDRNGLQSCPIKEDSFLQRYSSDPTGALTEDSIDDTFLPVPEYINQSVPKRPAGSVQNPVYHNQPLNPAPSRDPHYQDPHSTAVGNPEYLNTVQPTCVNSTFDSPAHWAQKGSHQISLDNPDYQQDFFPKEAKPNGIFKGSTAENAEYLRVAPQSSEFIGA
T8 sequence (P00533 25-1210 T790M/C797S/L858R): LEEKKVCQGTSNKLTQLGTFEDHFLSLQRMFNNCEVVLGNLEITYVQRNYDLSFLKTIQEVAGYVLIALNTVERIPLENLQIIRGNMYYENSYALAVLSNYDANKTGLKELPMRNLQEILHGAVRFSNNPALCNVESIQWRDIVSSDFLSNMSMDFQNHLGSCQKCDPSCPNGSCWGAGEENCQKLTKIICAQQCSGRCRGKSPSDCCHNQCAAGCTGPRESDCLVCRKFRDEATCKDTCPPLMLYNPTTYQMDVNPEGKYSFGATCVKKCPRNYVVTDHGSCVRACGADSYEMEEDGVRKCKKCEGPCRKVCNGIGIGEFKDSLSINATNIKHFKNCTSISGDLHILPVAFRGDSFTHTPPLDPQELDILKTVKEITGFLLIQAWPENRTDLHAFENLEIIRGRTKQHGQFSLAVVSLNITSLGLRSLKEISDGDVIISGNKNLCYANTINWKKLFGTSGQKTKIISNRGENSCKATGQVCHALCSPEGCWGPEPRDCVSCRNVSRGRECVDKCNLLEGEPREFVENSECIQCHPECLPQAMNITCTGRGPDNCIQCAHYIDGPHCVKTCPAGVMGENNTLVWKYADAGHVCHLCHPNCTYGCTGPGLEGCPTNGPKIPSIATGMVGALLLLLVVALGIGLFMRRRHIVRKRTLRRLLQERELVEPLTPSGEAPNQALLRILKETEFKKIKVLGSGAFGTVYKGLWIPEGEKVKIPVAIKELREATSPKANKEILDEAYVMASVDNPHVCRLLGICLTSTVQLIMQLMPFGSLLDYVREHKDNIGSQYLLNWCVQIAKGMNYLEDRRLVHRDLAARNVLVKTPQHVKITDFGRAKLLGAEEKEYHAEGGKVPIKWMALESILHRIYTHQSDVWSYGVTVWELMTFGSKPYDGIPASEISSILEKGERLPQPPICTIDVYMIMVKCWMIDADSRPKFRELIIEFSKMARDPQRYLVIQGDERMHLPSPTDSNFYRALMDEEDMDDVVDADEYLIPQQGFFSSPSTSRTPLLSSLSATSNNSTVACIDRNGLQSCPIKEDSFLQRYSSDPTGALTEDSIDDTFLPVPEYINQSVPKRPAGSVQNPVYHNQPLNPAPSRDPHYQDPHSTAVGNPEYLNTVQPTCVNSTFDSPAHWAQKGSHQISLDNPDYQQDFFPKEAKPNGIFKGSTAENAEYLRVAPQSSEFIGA
T5 sequence (P00533 25-1210 C797S/L858R): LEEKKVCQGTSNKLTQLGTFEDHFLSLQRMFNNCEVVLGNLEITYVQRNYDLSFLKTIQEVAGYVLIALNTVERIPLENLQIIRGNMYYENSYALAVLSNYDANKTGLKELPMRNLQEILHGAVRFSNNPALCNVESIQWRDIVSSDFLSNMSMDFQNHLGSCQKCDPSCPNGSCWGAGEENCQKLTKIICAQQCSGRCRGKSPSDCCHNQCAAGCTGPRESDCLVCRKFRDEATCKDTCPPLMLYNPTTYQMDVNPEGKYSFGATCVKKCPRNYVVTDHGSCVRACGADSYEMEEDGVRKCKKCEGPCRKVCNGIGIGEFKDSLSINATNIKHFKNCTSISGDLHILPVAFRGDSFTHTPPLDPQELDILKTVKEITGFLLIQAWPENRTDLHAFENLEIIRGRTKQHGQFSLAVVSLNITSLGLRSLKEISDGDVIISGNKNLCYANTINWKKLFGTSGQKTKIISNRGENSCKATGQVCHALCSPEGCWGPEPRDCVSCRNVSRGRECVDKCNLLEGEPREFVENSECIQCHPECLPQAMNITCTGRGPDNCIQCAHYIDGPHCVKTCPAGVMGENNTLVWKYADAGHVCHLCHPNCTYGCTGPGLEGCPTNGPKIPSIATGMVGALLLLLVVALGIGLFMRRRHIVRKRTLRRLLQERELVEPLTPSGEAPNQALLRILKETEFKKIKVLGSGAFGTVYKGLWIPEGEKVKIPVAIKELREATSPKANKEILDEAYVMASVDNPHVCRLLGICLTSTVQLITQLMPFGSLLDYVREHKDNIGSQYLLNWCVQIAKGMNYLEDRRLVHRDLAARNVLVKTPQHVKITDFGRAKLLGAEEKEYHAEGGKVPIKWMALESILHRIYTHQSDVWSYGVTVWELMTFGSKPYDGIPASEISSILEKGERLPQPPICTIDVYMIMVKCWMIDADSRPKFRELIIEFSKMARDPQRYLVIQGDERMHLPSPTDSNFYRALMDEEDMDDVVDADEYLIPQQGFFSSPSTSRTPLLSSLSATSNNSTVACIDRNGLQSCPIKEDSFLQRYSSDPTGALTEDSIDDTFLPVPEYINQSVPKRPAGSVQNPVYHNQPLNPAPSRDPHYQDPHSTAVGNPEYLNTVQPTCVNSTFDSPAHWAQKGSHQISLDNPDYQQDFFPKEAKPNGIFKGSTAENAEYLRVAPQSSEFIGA
T4 sequence (P00533 with tags, fused parts or gaps DEL746-750/T790M/C797S limits assumed): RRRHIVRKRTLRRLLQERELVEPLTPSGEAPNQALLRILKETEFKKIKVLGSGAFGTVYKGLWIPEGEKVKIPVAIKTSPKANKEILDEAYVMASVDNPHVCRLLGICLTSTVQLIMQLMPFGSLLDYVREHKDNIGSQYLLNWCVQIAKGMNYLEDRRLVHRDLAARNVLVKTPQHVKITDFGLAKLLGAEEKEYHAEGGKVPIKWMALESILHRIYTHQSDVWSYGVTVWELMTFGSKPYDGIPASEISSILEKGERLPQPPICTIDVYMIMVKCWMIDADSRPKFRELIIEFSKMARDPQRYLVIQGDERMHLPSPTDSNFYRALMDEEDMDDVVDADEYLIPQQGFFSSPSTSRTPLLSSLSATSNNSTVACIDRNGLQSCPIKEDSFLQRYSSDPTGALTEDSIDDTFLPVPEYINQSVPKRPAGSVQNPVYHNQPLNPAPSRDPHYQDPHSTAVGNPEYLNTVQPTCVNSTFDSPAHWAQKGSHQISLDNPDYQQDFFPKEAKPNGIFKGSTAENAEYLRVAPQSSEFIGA
T3 sequence (P00533 with tags, fused parts or gaps DEL746-750 limits assumed): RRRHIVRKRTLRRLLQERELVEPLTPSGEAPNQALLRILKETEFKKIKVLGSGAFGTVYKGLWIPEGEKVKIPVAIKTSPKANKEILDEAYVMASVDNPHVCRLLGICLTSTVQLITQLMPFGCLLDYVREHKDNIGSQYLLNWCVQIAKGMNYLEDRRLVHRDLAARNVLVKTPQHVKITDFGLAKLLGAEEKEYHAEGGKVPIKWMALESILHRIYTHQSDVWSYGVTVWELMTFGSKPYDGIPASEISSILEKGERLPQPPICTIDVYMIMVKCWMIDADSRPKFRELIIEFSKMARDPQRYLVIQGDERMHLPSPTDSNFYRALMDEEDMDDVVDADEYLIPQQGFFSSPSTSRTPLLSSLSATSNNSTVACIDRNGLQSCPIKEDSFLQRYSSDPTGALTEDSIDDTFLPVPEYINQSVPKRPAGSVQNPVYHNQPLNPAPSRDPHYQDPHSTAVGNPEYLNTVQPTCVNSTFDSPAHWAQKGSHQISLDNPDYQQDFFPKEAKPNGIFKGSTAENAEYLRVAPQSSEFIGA

Cc1cc2cc(n1)-c1cnn(C)c1OCCCCCn1c(nc3ccc4c(c31)CN(C1COC1)CC4)NC2=O [Example B18, 5,30-dimethyl-17-(oxetan-3-yl)-7-oxa-4,5,13,17,24,26,31-heptaazahexacyclo[26.3.1.0^{2,6}.0^{13,25}.0^{14,23}.0^{15,20}]dotriaconta-1(31),2(6),3,14,20,22,24,28(32),29-nonaen-27-one]
GI50 ([1]; Homo sapiens, PC-9, 72 h, read-out: GI50 PC9): 122 nM
IC50 [2, 12]: > 5000 nM
IC50 [3, 13]: > 500 nM
IC50 [4, 14]: 942 nM
GI50 ([5]; Mus musculus, BaF3, 72 h, BaF3 cells, EGFR DEL19 - C797S, read-out: GI50 DEL19 - C797S/BaF3): 86 nM
GI50 ([5]; Mus musculus, BaF3, 72 h, BaF3 cells, EGFR DEL19 - T790-C797S, read-out: GI50 DEL19 - T790-C797S/BaF3): 32 nM
GI50 ([5]; Mus musculus, BaF3, 72 h, BaF3 cells, EGFR L858R - C797S, read-out: GI50 L858R - C797S/BaF3): 2700 nM
GI50 ([5]; Mus musculus, BaF3, 72 h, BaF3 cells, EGFR L858R - T790-C797S, read-out: GI50 L858R - T790-C797S/BaF3): 24 nM
GI50 ([5]; Mus musculus, BaF3, 72 h, BaF3 cells, EGFR L858R - T790M, read-out: GI50 L858R - T790M/BaF3): 96 nM
GI50 ([5]; Mus musculus, BaF3, 72 h, BaF3 cells, EGFR L858R, read-out: GI50 L858R/BaF3): 432 nM
GI50 ([5]; Mus musculus, BaF3, 72 h, EGFR DEL19 - T790M, read-out: GI50 DEL19 - T790M): 12 nM
IC50 [6, 15]: 31 nM
IC50 [7, 16]: > 5000 nM
IC50 [8, 17]: 33 nM
IC50 [9, 18]: > 5000 nM
IC50 [10, 19]: 1990 nM
IC50 [11, 20]: > 5000 nM

CN1CC2CC1CN2c1ccc2nc3n(c2c1)C12CCC(CN(CCOc4c(cnn4C)-c4cc(cn(C)c4=O)C(=O)N3)C1)C2 (single isomer, unassigned) [Example A105A]
GI50 ([1]; CellTiter-Glo, read-out: PC9 GI50): 683 nM
IC50 ([2]; EGFR WT, 1 h, room temperature, read-out: IC50 (nM) @WT): > 5000 nM
IC50 ([3]; EGFR Del19-C797S, 1 h, room temperature, read-out: IC50 (nM) @Del19-C797S): 330 nM
IC50 ([4]; EGFR Del19, 1 mM ATP, 1 h, room temperature): 381 nM
GI50 ([5]; BaF3 cells, EGFR DEL19-C797S, CellTiter-Glo, read-out: DEL19-C797S/BaF3 GI50): 100 nM
GI50 ([5]; BaF3 cells, EGFR DEL19-T790-C797S, CellTiter-Glo, read-out: DEL19-T790-C797S/BaF3 GI50): 341 nM
GI50 ([5]; BaF3 cells, EGFR L858R, CellTiter-Glo, read-out: L858R/BaF3 GI50): 617 nM
GI50 ([5]; BaF3 cells, EGFR L858R-C797S, CellTiter-Glo, read-out: L858R-C797S/BaF3 GI50): 263 nM
GI50 ([5]; BaF3 cells, EGFR L858R-T790-C797S, CellTiter-Glo, read-out: L858R-T790-C797S/BaF3 GI50): 652 nM
GI50 ([5]; BaF3 cells, EGFR L858R-T790M, CellTiter-Glo, read-out: L858R-T790M/BaF3 GI50): 246 nM
GI50 ([5]; EGFR DEL19-T790M, CellTiter-Glo, read-out: DEL19-T790M GI50): 363 nM
IC50 ([6]; EGFR T790M-C797S-Del19, 1 mM ATP, 1 h, room temperature, read-out: IC50 (nM) @T790M - C797S - Del19): 4190 nM
IC50 ([7]; EGFR L858-C797S, 1 h, room temperature, read-out: IC50 (nM) @L858-C797S): 2770 nM
IC50 ([8]; EGFR Del19-T790M, 1 h, room temperature, read-out: IC50 (nM) @Del19-T790M): > 5000 nM
IC50 ([9]; EGFR L858R-T790M, 1 h, room temperature, read-out: IC50 (nM) @L858R-T790M): > 5000 nM
IC50 ([10]; EGFR T790M-C797S-L858R, 1 h, room temperature, read-out: IC50 (nM) @T790M- C797S - L858R): > 5000 nM
IC50 ([11]; 1 h, room temperature, read-out: IC50 (nM) @L858R): 2600 nM

Cc1cc2cc(n1)-c1cnn(C)c1OCCN1CCOCC(C1)n1c(nc3ccccc31)NC2=O (stereo not drawn) [Example B7B, 15,21-dimethyl-23,29-dioxa-2,9,11,16,20,21,26-heptaazahexacyclo[24.4.1.1^{13,17}.0^{2,10}.0^{3,8}.0^{18,22}]dotriaconta-3,5,7,9,13(32),14,16,18(22),19-nonaen-12-one]
GI50 ([1]; read-out: GI50 PC9): 469 nM
IC50 [2, 12]: > 5000 nM
IC50 [3, 13]: 322 nM
IC50 [4, 14]: 864 nM
GI50 ([5]; BaF3 cells, EGFR DEL19 - C797S, read-out: GI50 DEL19 - C797S/BaF3): 173 nM
GI50 ([5]; BaF3 cells, EGFR DEL19 - T790-C797S, read-out: GI50 DEL19 - T790-C797S/BaF3): 130 nM
GI50 ([5]; BaF3 cells, EGFR L858R - C797S, read-out: GI50 L858R - C797S/BaF3): 253 nM
GI50 ([5]; BaF3 cells, EGFR L858R - T790-C797S, read-out: GI50 L858R - T790-C797S/BaF3): 123 nM
GI50 ([5]; BaF3 cells, EGFR L858R - T790M, read-out: GI50 L858R - T790M/BaF3): 292 nM
GI50 ([5]; BaF3 cells, EGFR L858R, read-out: GI50 L858R/BaF3): 1600 nM
GI50 ([5]; EGFR DEL19 - T790M, read-out: GI50 DEL19 - T790M): 189 nM
IC50 [6, 15]: 17 nM
IC50 [7, 16]: 4430 nM
IC50 [8, 17]: 42 nM
IC50 [9, 18]: 909 nM
IC50 [10, 19]: 529 nM
IC50 [11, 20]: > 5000 nM
